Experimental data taken from patent publication US8192962B2, “Processes for detecting toxic substances” (Daikin Industries, Ltd., priority 2001, dated 2012).

System: Energy system protein genes
Assay: DNA chip mRNA expression in yeast, energy system protein genes (Table 4)
Assay type: cell-based, Saccharomyces cerevisiae S288C
In short: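 Untreated cultures served as reference for log-phase S288C yeast given a growth-inhibiting, non-lethal toxicant dose for 2 h at 25° C. in YPD. Gene expression was measured on a whole-genome DNA chip from Cy3/Cy5-labeled cDNA.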

Measured: The level of expressed mRNA in the presence of chemical substance/The level of expressed mRNA in the absence of chemical substance

CCCCC[C@H](O)CC(=O)CCc1ccc(O)c(OC)c1 [(13), gingerol]
3.1: yeast gene YGR254W | yeast gene YNL331C
1.3: yeast gene YMR205C, cells incubated two hours with the chemical substance
1.7: yeast gene YIL111W | yeast gene YLR273C
2.5: yeast gene YFR015C | yeast gene YNL071W
2.4: yeast gene YDR231C | yeast gene YER178W | yeast gene YPL171C
2.3: yeast gene YIL160C | yeast gene YMR089C | yeast gene YPR026W
3.3: yeast gene YMR105C
1.6: yeast gene YBL058W, cells incubated two hours with the chemical substance | yeast gene YEL047C, cells incubated two hours with the chemical substance | yeast gene YEL071W, cells incubated two hours with the chemical substance | yeast gene YJL045W, cells incubated two hours with the chemical substance | yeast gene YMR261C, cells incubated two hours with the chemical substance | yeast gene YPL031C, cells incubated two hours with the chemical substance
1.0: yeast gene YBR185C, cells incubated two hours with the chemical substance | yeast gene YDL078C, cells incubated two hours with the chemical substance | yeast gene YGL205W, cells incubated two hours with the chemical substance | yeast gene YGR207C | yeast gene YIR031C, cells incubated two hours with the chemical substance | yeast gene YJR121W, cells incubated two hours with the chemical substance | yeast gene YLL041C, cells incubated two hours with the chemical substance | yeast gene YLR164W, cells incubated two hours with the chemical substance | yeast gene YLR354C, cells incubated two hours with the chemical substance | yeast gene YML129C, cells incubated two hours with the chemical substance | yeast gene YOR178C, cells incubated two hours with the chemical substance | yeast gene YOR221C | yeast gene YPL275W, cells incubated two hours with the chemical substance
3.0: yeast gene YFR053C
0.4: yeast gene YDR380W | yeast gene YJR048W
1.5: yeast gene YCR046C, cells incubated two hours with the chemical substance | yeast gene YEL011W | yeast gene YGL253W | yeast gene YGR062C, cells incubated two hours with the chemical substance, 25° C., YPD medium | yeast gene YKL085W, cells incubated two hours with the chemical substance | yeast gene YML087C | yeast gene YOR136W
1.2: yeast gene YDL107W, cells incubated two hours with the chemical substance | yeast gene YDR298C, cells incubated two hours with the chemical substance | yeast gene YEL020C | yeast gene YKL060C, cells incubated two hours with the chemical substance | yeast gene YML120C, cells incubated two hours with the chemical substance | yeast gene YMR073C, cells incubated two hours with the chemical substance | yeast gene YPL271W
5.9: yeast gene YDL174C
2.1: yeast gene YBR126C
1.8: yeast gene YAL038W | yeast gene YAL054C | yeast gene YHL008C | yeast gene YKL150W | yeast gene YOR347C | yeast gene YPR006C
0.7: yeast gene YBR299W | yeast gene YCR005C | yeast gene YDR377W, cells incubated two hours with the chemical substance | yeast gene YDR529C, cells incubated two hours with the chemical substance | yeast gene YGL134W | yeast gene YGL187C, cells incubated two hours with the chemical substance | yeast gene YJL121C, cells incubated two hours with the chemical substance | yeast gene YKR058W, cells incubated two hours with the chemical substance, 25° C., YPD medium | yeast gene YMR267W, cells incubated two hours with the chemical substance, 25° C., YPD medium
3.7: yeast gene YOL165C
2.6: yeast gene YGR244C | yeast gene YHR179W | yeast gene YOL126C
1.4: yeast gene YBR196C | yeast gene YOL157C
2.2: yeast gene YAL060W | yeast gene YML125C
1.9: yeast gene YNL037C
3.8: yeast gene YML100W
2.8: yeast gene YDR001C | yeast gene YML054C
2.0: yeast gene YBR145W | yeast gene YIL045W | yeast gene YIL172C | yeast gene YKL035W
4.0: yeast gene YCR107W
3.4: yeast gene YGR008C | yeast gene YGR192C
3.2: yeast gene YNL237W
0.6: yeast gene YDL067C, cells incubated two hours with the chemical substance | yeast gene YEL024W, cells incubated two hours with the chemical substance | yeast gene YPR048W, cells incubated two hours with the chemical substance
2.9: yeast gene YPL240C
1.1: yeast gene YGL191W, cells incubated two hours with the chemical substance | yeast gene YGR112W, cells incubated two hours with the chemical substance | yeast gene YJL216C, cells incubated two hours with the chemical substance | yeast gene YOR388C, cells incubated two hours with the chemical substance | yeast gene YPL061W, cells incubated two hours with the chemical substance
